Experiments:
[1] = system: HCV sub-genomic replicon in FCA-4 cells; assay: Antiviral effect in FCA-4 HCV 1b sub-genomic replicon cells, RT-PCR of HCV RNA; format: cell-based, hepatitis C virus
From the text: FCA-4 sub genomic replicon was bicistronic construct composed of the HCV IRES (nucleotides 1 to 377 of the 5′NCR); the neomycin phosphotransferase (neo) gene; the encephalomyocarditis IRES, which mediates the translation of HCV nonstructural proteins NS3 through NS5; and the 3′NCR as shown in FIG. 2. […] FCA-4 sub-genomic replicon consists of single adaptive mutation and a deletion of a serine residue at position 1176 (Guo et al, 2001).
The bicistronic RNA molecule contains the HCV IRES and a few core-coding sequences, which are followed by neomycin phosphotransferase gene (Neor). These sequences are followed by the encephalomyocarditis virus IRES placed in front of HCV sequences encoding nonstructural protein NS3 to NS5B, terminating at the HCV 3NCR.
To determine the antiviral effect against HCV, FCA 4 cells were seeded in six well plates. After 24 h, media containing 20 μM of test compound was added to the plates. Cells were incubated at 37° C. in CO2 incubator for additional 48 h. At the end of the incubation, cells were harvested, RNA was extracted and cDNA were generated by oligo dT priming cDNA was amplified by PCR using primers specific to the 5′ UTR and NS5B gene of HCV. Amplification of GAPDH mRNA served as an internal control.

[2] = system: HCV 3a genotype in MDBK cells; assay: Combination with interferon-α against HCV 3a genotype in MDBK cells, real time quantitative RT-PCR; format: cell-based, hepatitis C virus; conditions: interferon-α 5 IU/well, 6 hrs pre-incubation, HCV 3a 2×10^4 copies per well, 18 hrs
Procedure: Surprising synergism was recorded when Compound 1 was combined with Interferon alpha. […] MDBK cells were incubated for 6 hrs with compounds and interferon alone, or combination of compound and interferon in a 96-well plat. After 6 hrs cells were infected with 2×10^4 copies of HCV 3a genotype per well and incubated for additional 18 hrs. At the end of incubation period, total RNA was extracted by Gentra kit, and the levels of HCV RNA remaining were determined, by real time Quantitative RT-PCR assay and are shown as percentage of HCV RNA survival in cells. Results are represented as the average and standard error for three independent experiments.

HCV = conditions: ribavirin alone; cited from earlier work

Row | SMILES | GAPDH mRNA expression (internal control) ([1]; 20 μM, 48 h, FCA 4 cells) | HCV RNA expression ([1]; 20 μM, 48 h, FCA 4 cells, RT-PCR (5′ UTR and NS5B primers)) | antiviral suppression in relation to cytotoxicity ([1]; FCA4 cells) | concentration showing maximum reduction of HCV expression ([1]; dose dependent, FCA4 sub-genomic replicon, 48 h, FIG. 3) | effect of combination with interferon-α on HCV RNA [2] | patients with serum amino transferase levels reduced to normal (HCV)
1 | O=c1oc(-c2cccc([N+](=O)[O-])c2)nc2cc([N+](=O)[O-])ccc12 [Compound 1, 7-nitro-2-(3-nitrophenyl)-4H-3,1-benzoxazin-4-one] | remains unaffected | inhibited HCV RNA expression significantly | independent of cytotoxicity | 10 µM | synergistic effect | –
2 | NC(=O)c1ncn([C@@H]2O[C@H](CO)[C@@H](O)[C@H]2O)n1 [Ribavirin, 1-β-D-ribofuranosyl-1-1,2,4-triazole-3-carboxamide] | – | – | – | – | – | 40%
